Results reported in publication PMC6145916, “Interaction of mitochondrial fission factor with dynamin related protein 1 governs physiological mitochondrial function in vivo” (Scientific Reports, 2018).
Where no end group is shown, it is not given here.

Assays:
wild-type mice = assay: Open-field activity chamber behavior; type: in vivo, mouse; conditions: 3 mg/Kg/day
From the text: (§1) (a) Quantification of mitochondrial Drp1 content relative to ALDH2 (a mitochondrial matrix enzyme) in the mitochondrial fraction isolated from total brain lysate of wild-type mice (Western blot shown in Fig. S3B) (n = 4 mice). (b) ATP content in brain tissue of wild-type mice (n = 4 mice, 2 replicates). (c) Representative transmission electron microscopy images of the striatum from wild-type mice. […] The first principal component represents 42% of the variation. (f) Local linear embedding dimensionality reduction and visualization of all behaviors collected weekly from TAT- (black) or P259- (purple) treated WT and TAT- (white) treated R6/2 mice over the course of 8 weeks. […] All behavior and survival tests were conducted by an experienced observer who was blinded to the treatment groups. Data are mean ± s.e.
Five-week old R6/2 HD mice and their wild-type littermates (a total of 60 mice) were implanted subcutaneously with a 28-d Alzet osmotic pump with either P259-TAT or TAT control peptide (15 mice per group) to be delivered continuously at a rate of 3 mg/Kg/day, as previously described. All mice were implanted twice for a total of an 8-week treatment. 20 of the WT mice were implanted 3 times for a total of a 12-week treatment at 3 mg/Kg/day. All the experiments were in accordance with protocols approved by the Institutional Animal Care and Use Committee of Stanford University and were performed based on the National Institutes of Health Guide for the Care and Use of Laboratory Animals. All methods were carried out in accordance with the relevant guidelines and regulations. […]
Survival and behavioral mice studies […]
All behavior and […]
survival tests were conducted by an experienced ob server who was blinded to the treatment groups.
Behavioral tests were administered weekly in an open-field activity arena (Med Associate s Inc, St.
Albans, VT. Model ENV-515) equipped with three planes of infrared detectors within a sound-proof chamber (Med Associates Inc., St. Albans, VT. MED-017-027), as described previously.12 Each mouse was placed in a corner of the chamber and was tracked for a period of 15 minutes.
The following activities were recorded: digging duration, grooming duration, climbing duration, rearing duration, seizure frequency, average velocity, active behaviors, total distance moved, jump counts/time, ambulatory counts/distance/time, latency towards center, stereotypic time/counts, resting time, vertical counts/time, and zone entries (center/periphery).
Dimensionality reduction of mouse behavior data
The collection of weekly behavior parameters for wild-type mice treated with P259 or the TAT control was assembled into a vector with a total of 180 behavior parameters per mouse. The top 20% of parameters contributing to treatment classification were filtered by using a combination of the ANOVA F- and the mutual information scores for each behavior. The filtered dataset was normalized and principal component analysis was performed using the Python scikit-learn package. An eigenvector was extracted to determine the contribution of each behavior to the first […]
treated wild-type mice and control-treated R6/2 mice during the eight-week treatment were assembled into a single vector for each mouse. The dataset was normalized and local linear embedding from the Python scikit-learn package was used to reduce the dimensionality of and visualize the behavior parameters.

SH-SY5Y cells = assay: Oxygen consumption rate, SH-SY5Y; type: cell-based, human; conditions: overnight treatment, XFe24 analyzer
wild-type MEFs = assay: Mitochondrial membrane potential (TMRM), WT MEFs; type: cell-based, mouse; conditions: 20 µM P259 overnight, vs no peptide; 3 independent experiments, three technical replicates; ** p <0.01
Procedure: Data are of 3 independent experiments with the whiskers calculated by the Turkey method. e. […]
determined by an unpaired, two -tailed t test). g. […]
control (no peptide treatment). Data are mean ± s.e. from 3 independent experiments. […]
and without phenol red. […] After incubation
HEPES, and without phenol red. […]
epifluorescence microscope with a 10X objective (Keyence). The Cy5 filter (Keyence) was used to autofocus on the mitochondria plane. […]
Mitochondrial membrane potential determination
After treatment, cells were washed with
Cells were incubated in a 37
°C incubator for 30 minutes. […]

Drp1 = assay: Mitochondrial Drp1 content in brain of wild-type mice; type: in vivo, mouse; conditions: 3 mg/Kg/day, subcutaneous osmotic pump, 8-week treatment, WT mice; Drp1 relative to ALDH2; n = 4 mice
From the text: as §1
Five-week old R6/2 HD mice and their wild-type littermates (a total of 60 mice) were implanted subcutaneously with a 28-d Alzet osmotic pump with either P259-TAT or TAT control peptide (15 mice per group) to be delivered continuously at a rate of 3 mg/Kg/day, as previously described. […]
The effect of peptides on GTPase activity of Drp1 was measured by incubating recombinant Drp1 […]
for 1 hour at 37 °C. GTPase activity was measured using a colorimetric GTPase assay kit (Novus Biologicals, CO, USA) as instructed by the manufacturer. […]

[1] = 8-week treatment, WT mice, n = 10 mice

YGRKKRRQRRRGSGIIQLPEIVVV-NH2 (C-terminus assumed) [P259]
active mouse behaviors (wild-type mice; [1]): less active
jumping and climbing (wild-type mice; [1]): jumped and climbed less frequently
total distance moved (wild-type mice; [1]): travelled for a shorter distance
behavior profile, principal component analysis (top 20% of behaviors) (wild-type mice; 12 weeks, WT mice, vs TAT): successfully separated the behavior profile of P259- and TAT control-treated mice
jump counts/time, periphery-to-center transition, movement counts, stereotypic time (wild-type mice; WT mice, tested weekly, 12 weeks, vs TAT-treated mice): performed worse than TAT-treated mice
aggregate behavior score (local linear embedding) (wild-type mice; weekly over 8 weeks, P259-treated WT vs TAT-treated WT and TAT-treated R6/2 mice): intermediate aggregate behavior score between WT- and R6/2 control-treated mice
electron flux (electron transport chain flux) (SH-SY5Y cells; 4 µM (Fig. 2f), n = 3, with at least 3 replicates): dose-dependent decline
basal oxygen consumption rate (SH-SY5Y cells; indicated concentrations, 3 independent experiments): dose-dependent decline
mitochondrial membrane potential, WT MEFs (wild-type MEFs): decreases
reduction of mitochondrial Drp1 association (brain) (Drp1): ~ 80%
